Test results taken from patent publication US20120214760A1, “TREATMENT OF URINARY TRACT INFECTIONS WITH ANTIBACTERIAL AMINOGLYCOSIDE COMPOUNDS” (Achaogen, Inc., priority 2009, published 2012).
Values after ≈ are worked out from the molar mass of the structure shown.

Columns and labels:
[1] = test system: A. calcoaceticus AACA005, AAC(6′)-I; assay: MIC, aminoglycoside resistant strain; format: cell-based; conditions: Table 3
Description: (§1) Minimum inhibitory concentrations (MIC) were determined by reference Clinical and Laboratory Standards Institute (CLSI) broth microdilution methods per M7-A7 [2006]. Quality control ranges utilizing E. coli ATCC 25922, P. aeruginosa ATCC 27853 and S. aureus ATCC 29213, and interpretive criteria for comparator agents were as published in CLSI M100-S17 [2007]. Briefly, serial two-fold dilutions of the test compounds were prepared at 2× concentration in Mueller Hinton Broth. The compound dilutions were mixed in 96-well assay plates in a 1:1 ratio with bacterial inoculum. The inoculum was prepared by suspension of a colony from an agar plate that was prepared the previous day. Bacteria were suspended in sterile saline and added to each assay plate to obtain a final concentration of 5×10^5 CFU/mL. The plates were incubated at 35° C. for 20 hours in ambient air.
(§2) These MIC assays were conducted following the same protocol as set forth in Example 110. As shown, substituted sisomicin derivatives with groups other than methyl at the 6′-position have improved activity against strains expressing the AAC6′-modifying enzymes.

[2] = test system: E. coli AECO040, AAC(6′)-I; assay: MIC, aminoglycoside resistant strain; format: cell-based; conditions: Table 3
Description: as §1, §2

[3] = test system: S. marcescens ASMA003, ANT(2″) + AAC(6′); assay: MIC, aminoglycoside resistant strain; format: cell-based; conditions: Table 3
Description: as §1, §2

[4] = test system: Pathogens (169 in total); assay: Susceptibility testing, all urinary tract infection isolates; format: cell-based; conditions: all isolates
Description: as §1
(§3) In order to determine the activity of representative antibacterial aminoglycoside compounds against bacterial species that commonly cause complicated urinary tract infections worldwide, isolates were collected from 47 medical centers in the U.S. and Europe (10 countries) from urine or blood culture with the source of bacteremia documented as a urinary tract infection. Strains were susceptibility tested against Example 1, gentamicin, amikacin and 10 comparators by CLSI broth microdilution. These MIC assays were conducted following the same protocol as set forth in Example 110. Pathogens (169 in total) included E. coli, Klebsiella spp., Enterobacter spp., Citrobacter spp., P. mirabilis, M. Morganii, P. aeruginosa, S. aureus and S. saprophyticus.

[5] = test system: E. coli, Klebsiella spp., Enterobacter spp. and Citrobacter spp.; assay: MIC, urinary tract infection isolates; format: cell-based; conditions: Escherichia coli, range among E. coli
Description: as §1, §3

[6] = test system: P. aeruginosa (19); assay: MIC, urinary tract infection isolates; format: cell-based; conditions: Pseudomonas aeruginosa; P. aeruginosa isolates
Description: as §1, §3

[7] = test system: P. mirabilis and M. morganii; assay: MIC, urinary tract infection isolates; format: cell-based
Description: as §1, §3

[8] = test system: S. aureus (23); assay: MIC, urinary tract infection isolates; format: cell-based; conditions: Staphylococcus aureus; S. aureus isolates, including 43.5% oxacillin-resistant strains
Description: as §1, §3

[9] = test system: S. saprophyticus (19); assay: MIC, urinary tract infection isolates; format: cell-based; conditions: Staphylococcus saprophyticus; S. saprophyticus isolates
Description: as §1, §3

[10] = test system: K. pneumoniae AKPN 1109, KPC; assay: Murine neutropenic thigh model; format: in vivo
Description: Activity is presented as the log10 difference in CFU/thigh after 24 hours of antibiotic treatment compared to CFU/thigh just prior to antibiotic treatment (2 hours post-infection). Total dose per 24 hours is shown; dosing was q12 hours. 6 mice per group, Inoculum=8.3×10^5 CFU.
(§4) The in vivo activity of Example 1 in the mouse neutropenic thigh model (Andes and Craig. Antimicrob Agents Chemother. 2002, 46:1665-1670) was determined against seven bacterial strains including susceptible Escherichia coli and Klebsiella pneumoniae; multi-drug resistant (MDR) clinical isolates of E. coli and K. pneumoniae that display resistance to multiple antibiotics (including AGs); MRSA; and two K. pneumoniae carbapenemases (KPC)-expressing strains (see Table 5). For this efficacy model, groups of six CD-1 mice were rendered neutropenic by two intraperitoneal injections of cyclophosphamide. The first injection was 150 mg/kg three days prior to infection (day −4), and the second injection was 100 mg/kg one day prior to infection (day −1). On study day 0, animals were inoculated intramuscularly (0.1 ml) with a known number of colony forming units (CFU) of the specified bacterial strain (ATCC 25922, AECO 1003, ATCC 43816, AKPN 1073, AKPN 1109, ATCC 33591 or ASMA 1030), tailored to the virulence of each strain in the model to maximize bacterial load while avoiding mortality in the untreated control arms. Antibiotics were administered via subcutaneous injection at 2 and 14 hours after bacterial challenge. At 26 hours, infected thigh tissue was harvested, homogenized, and plated to count CFU. Untreated control animals were harvested at 2 hours post-infection to assess the initial bacterial load and at 26 hours post-infection to measure growth in the absence of antibiotic treatment.

[11] = test system: seven bacterial strains; assay: Murine neutropenic thigh model, all strains; format: in vivo
Description: as §4, with “Untreated control animals were harvested at 2 hours post-infection to assess the initial bacterial load and at 26 hours post-infection to measure growth in the absence of antibiotic treatment.” left out

CN[C@@H]1[C@@H](O)[C@@H](O[C@@H]2[C@@H](O)[C@H](O[C@H]3OC(CNCCO)=CC[C@H]3N)[C@@H](N)C[C@H]2NC(=O)[C@@H](O)CCN)OC[C@]1(C)O [Example 1, 6′-(2-Hydroxy-ethyl)-1-(4-amino-2(S)-hydroxy-butyryl)-sisomicin]
MIC AACA005 [1]: 2 µg/mL (≈ 3.37 µM) | MIC AECO040 [2]: 0.5 µg/mL (≈ 0.844 µM) | MIC ASMA003 [3]: 2 µg/mL (≈ 3.37 µM) | % of strains inhibited ([4]; at ≦4 μg/ml): 90.5% | % of strains inhibited ([4]; at ≦16 μg/ml): 98.8% | MIC90 [5]: 0.5 to 2 µg/mL (≈ 0.844 to 3.37 µM) | MIC90 [6]: 16 µg/mL (≈ 27 µM) | MIC90 [7]: 4 to 8 µg/mL (≈ 6.75 to 13.5 µM) | MIC90 [8]: 2 µg/mL (≈ 3.37 µM) | MIC50 [9]: ≤ 0.25 µg/mL | MIC90 [9]: 0.5 µg/mL (≈ 0.844 µM) | ED50/MIC ([10]; K. pneumoniae AKPN 1109): 18-37 | ED50 ([10]; Klebsiella pneumoniae, sc, neutropenic CD-1 mice, subcutaneous at 2 and 14 hours, K. pneumoniae AKPN 1109): 9.2 mg/kg | bacterial load after 24 hours of treatment versus initial bacterial load at 2 hours post-inoculation ([10]; highest test dosage, challenge 8.3×10^5 CFU AKPN 1109, FIG. 3): reduced back to the level of the initial bacterial load | bacterial titers versus initial bacterial load (static level) ([11]; all 7 strains): reducing bacterial titers back to or below the initial bacterial load | in vivo efficacy in words ([11]; gentamicin resistant strains): efficacious
